In patent US7256198B2, “Pyrimidoindolones and methods for using same” (Wyeth, priority 2004, dated 2007):

biological target: T1, recombinant caspase 3 (Homo sapiens, UniProt P42574); assay: Caspase 3 Inhibition Assay (Ac-DEVD-AFC fluorogenic substrate cleavage); assay type: biochemical; conditions: @ 1 μM compound; recombinant caspase 3, Ac-DEVD-AFC 25 μM, pH 7.2, 23° C.; read-out: percent inhibition at the highest compound concentration
T1 construct: His tag (C); made in house; host or cells: E. coli
T1 sequence (P42574 29-175 limits assumed): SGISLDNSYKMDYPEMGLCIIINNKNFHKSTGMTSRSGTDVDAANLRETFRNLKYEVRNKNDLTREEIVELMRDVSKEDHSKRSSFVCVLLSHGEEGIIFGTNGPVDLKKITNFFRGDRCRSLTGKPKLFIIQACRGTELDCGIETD
T1 sequence (P42574 176-277 limits assumed): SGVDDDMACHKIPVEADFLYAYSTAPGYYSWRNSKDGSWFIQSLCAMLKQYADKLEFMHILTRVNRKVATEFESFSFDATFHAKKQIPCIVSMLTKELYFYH
Method: Caspase 3 was expressed intracellularly in E. coli with a c-terminal His tag. Fermentation was performed at 25° C. in a B. Braun Biotech Biostat C 10 liter bioreactor vessel. The culture was collected in IL bottles and centrifuged in Komspin KA-7.1000 rotors at approximately 8000 RCF (Relative Centrifugal Force). The cell pellets were re-suspended in 20 mM Tris pH 8.0, 500 mM NaCl, and 5 mM imidazole. The cell suspension was disrupted by passing 5 times through a microfluidizer Model 110Y (Microfluidics Corp, Newton, Mass). After centrifugation (13 kg, 30 min at 4 C), the supernatant was applied to a column of Nickle-NTA agarose. The Caspase 3 was eluted with a gradient of 5 mM to 150 mM imidazole in the above buffer. Fractions containing Caspase 3 were pooled and concentrated with a Millipore Ultrafree filtration device. The concentrated Caspase 3 solution was loaded unto a TSK gel G3000sw column (Tosoh Bioseph LLC), equilibrated with a buffer of 20 mM PIPES pH 7.2, 100 mM NaCl, 1 mM EDTA & 5 mM Cysteine. Fractions containing Caspase 3 were pooled and concentrated. Sometimes CHAPS was added to 0.1% and sucrose to 10% into the protein sample.
Caspase 3 was assayed at 23° C. (room temp) in 96-well plates using the internally quenched tetrapeptide substrate N-acetyl-aspartyl-glutamyl-valyl-aspartate-7-amino-4-trifluoromethyl coumarin (Ac-DEVD-AFC purchased from Biomol). The assays are conducted at pH 7.2 in a buffered system containing 20 mM PIPES, 100 mM NaCl, 1 mM EDTA, 0.1% CHAPS, 10% sucrose and 5 mM L-cysteine. […] A steady state rate of substrate cleavage is obtained for analysis.
The progress curves generated were fitted by computer to equation 1 to generate an IC50 value. Equation 1: y=Bmax*(1−(x^n/(K^n+x^n))), where Bmax is rate in the absence of inhibitor.

Row | inhibition at 1 µM [%] | SMILES
1 | 10 | COC[C@@H]1CCCN1C(=O)c1ccc2c(c1)C(=O)C1=NCC(C)(C)CN12 [Example 75, 8-{[(2S)-2-(Methoxymethyl)pyrrolidin-1-yl]carbonyl}-3,3-dimethyl-3,4-dihydropyrimido[1,2-a]indol-10(2H)-one]

same assay, conditions: @ 50 μM compound; recombinant caspase 3, Ac-DEVD-AFC 25 μM, pH 7.2, 23° C.; read-out: percent inhibition at the highest compound concentration

Row | inhibition at 50 µM [%] | SMILES
2 | 10 | Cc1ccc2c(c1)C(=O)C1=NCCCN12 [Example 10, 8-Methyl-3,4-dihydropyrimido[1,2-a]indol-10(2H)-one]
3 | 29 | CN1CCN(C(=O)c2ccc3c(c2)C(=O)C2=NCC(C)(C)CN23)CC1 [Example 81, 3,3-Dimethyl-8-[(4-methylpiperazin-1-yl)carbonyl]-3,4-dihydropyrimido[1,2-a]indol-10(2H)-one]
4 | 9 | COc1ccc2c(c1)C(=O)C1=NCCCN12 [Example 11, 8-Methoxy-3,4-dihydropyrimido[1,2-a]indol-10(2H)-one]
5 | 36 | CC1(C)CN=C2C(=O)c3cc(C(=O)Nc4ccccc4)ccc3N2C1 [Example 76, 3,3-Dimethyl-10-oxo-N-phenyl-2,3,4,10-tetrahydropyrimido[1,2-a]indole-8-carboxamide]
6 | 28 | CC(=O)N1CCN(C(=O)c2ccc3c(c2)C(=O)C2=NCC(C)(C)CN23)CC1 [Example 82, 8-[(4-Acetylpiperazin-1-yl)carbonyl]-3,3-dimethyl-3,4-dihydropyrimido[1,2-a]indol-10(2H)-one]
7 | 37 | CC1(C)CN=C2C(=O)c3cc(C(=O)N4CCCC4)ccc3N2C1 [Example 78, 3,3-Dimethyl-8-(pyrrolidin-1-ylcarbonyl)-3,4-dihydropyrimido[1,2-a]indol-10(2H)-one]
8 | 46 | CC1(C)CN=C2C(=O)c3cc(C(=O)N4CCc5ccccc54)ccc3N2C1 [Example 80, 8-(2,3-Dihydro-1H-indol-1-ylcarbonyl)-3,3-dimethyl-3,4-dihydropyrimido[1,2-a]indol-10(2H)-one]

same assay, conditions: recombinant caspase 3 0.25 nM, Ac-DEVD-AFC 25 μM, pH 7.2, 23° C.

Row | SMILES | IC50 [nM]
9 | CC1(C)CN=C2C(=O)c3cc(NS(=O)(=O)c4ccc(F)c(Cl)c4)ccc3N2C1 [Example 52, 3-Chloro-N-(3,3-dimethyl-10-oxo-2,3,4,10-tetrahydropyrimido[1,2-a]indol-8-yl)-4-fluorobenzenesulfonamide] | 285
10 | CC1(C)CN=C2C(=O)c3cc(C(=O)NC4CCCC4)ccc3N2C1 [Example 77, N-Cyclopentyl-3,3-dimethyl-10-oxo-2,3,4,10-tetrahydropyrimido[1,2-a]indole-8-carboxamide] | 35000
11 | CC1(C)CN=C2C(=O)c3cc(S(=O)(=O)N4CCC[C@H]4COc4cccnc4Cl)ccc3N2C1 [Example 43, 8-[((2S)-2-{[(2-Chloropyridin-3-yl)oxy]methyl}pyrrolidin-1-yl)sulfonyl]-3,3-dimethyl-3,4-dihydropyrimido[1,2-a]indol-10(2H)-one] | 7
12 | CC1(C)CN=C2C(=O)c3cc(C#N)ccc3N2C1 [Example 20, 3,3-Dimethyl-10-oxo-2,3,4,10-tetrahydropyrimido[1,2-a]indole-8-carbonitrile] | 99
13 | Cc1ccc(OC[C@@H]2CCCN2S(=O)(=O)c2ccc3c(c2)C(=O)C2=NCC(C)(C)CN23)cn1 [Example 44, 3,3-Dimethyl-8-[((2S)-2-{[(6-methylpyridin-3-yl)oxy]methyl}pyrrolidin-1-yl)sulfonyl]-3,4-dihydropyrimido[1,2-a]indol-10(2H)-one] | 19
14 | CC1(C)CN=C2C(=O)c3cc(S(=O)(=O)N4CCC[C@H]4COc4ccc(C(F)(F)F)cn4)ccc3N2C1 [Example 42, 3,3-Dimethyl-8-{[(2S)-2-({[5-(trifluoromethyl)pyridin-2-yl]oxy}methyl)pyrrolidin-1-yl]sulfonyl}-3,4-dihydropyrimido[1,2-a]indol-10(2H)-one] | 14
15 | CC1(C)CN=C2C(=O)c3cc(S(=O)(=O)N4c5ccccc5C[C@H]4COc4ccccc4)ccc3N2C1 [Example 34, 3,3-Dimethyl-8-{[(2S)-2-(phenoxymethyl)-2,3-dihydro-1H-indol-1-yl]sulfonyl}-3,4-dihydropyrimido[1,2-a]indol-10(2H)-one] | 1210
16 | CC1(C)CN=C2C(=O)c3cc(S(=O)(=O)N4CCC[C@H]4COc4cccc(Cl)n4)ccc3N2C1 [Example 40, 8-[((2S)-2-{[(6-Chloropyridin-2-yl)oxy]methyl}pyrrolidin-1-yl)sulfonyl]-3,3-dimethyl-3,4-dihydropyrimido[1,2-a]indol-10(2H)-one] | 5
17 | COC[C@@H]1CCCN1S(=O)(=O)c1cc2c(cc1Cl)N1CCCN=C1C2=O [Example 5, 7-Chloro-8-{[(2S)-2-(methoxymethyl)pyrrolidin-1-yl-]sulfonyl}-3,4-dihydropyrimido[1,2-a]indol-10(2H)-one] | 189
18 | CC1(C)CN=C2C(=O)c3cc(NS(=O)(=O)c4cccc(Br)c4)ccc3N2C1 [Example 50, 3-Bromo-N-(3,3-dimethyl-10-oxo-2,3,4,10-tetrahydropyrimido[1,2-a]indol-8-yl)benzenesulfonamide] | 23.4
19 | CC1(C)CN=C2C(=O)c3cc(C(=O)N4CCCCC4)ccc3N2C1 [Example 79, 3,3-Dimethyl-8-(piperidin-1-ylcarbonyl)-3,4-dihydropyrimido[1,2-a]indol-10(2H)-one] | 21000
20 | O=C1C2=NCCCN2c2cc(Cl)c([N+](=O)[O-])cc21 [Example 15, 7-Chloro-8-nitro-3,4-dihydropyrimido[1,2-a]indol-10(2H)-one] | 4590
21 | Cc1ccc(OC[C@@H]2CCCN2S(=O)(=O)c2ccc3c(c2)C(=O)C2=NCC(C)(C)CN23)c(Cl)c1 [Example 26, 8-({(2S)-2-[(2-Chloro-4-methylphenoxy)methyl]pyrrolidin-1-yl}sulfonyl)-3,3-dimethyl-3,4-dihydropyrimido[1,2-a]indol-10(2H)-one] | 98

Further lines, results first:

Row | IC50 [nM] | SMILES
22 | 874 | CC1(C)CN=C2C(=O)c3cc(Cl)ccc3N2C1 [Example 14, 8′-Chloro-3′,3′-dimethyl-3′,4′-dihydropyrimido[1,2-a]indol-10(2H)-one]
23 | 49 | Cc1ccc(OC[C@@H]2CCCN2S(=O)(=O)c2ccc3c(c2)C(=O)C2=NCC(C)(C)CN23)cc1 [Example 24, 3,3-Dimethyl-8-({(2S)-2-[(4-methylphenoxy)methyl]pyrrolidin-1-yl}sulfonyl)-3,4-dihydropyrimido[1,2-a]indol-10(2H)-one]
24 | 45 | CC1(C)CN=C2C(=O)c3cc(S(=O)(=O)N4CCC[C@H]4COc4cccc(C(F)(F)F)c4)ccc3N2C1 [Example 31, 3,3-Dimethyl-8-[((2S)-2-{[3-(trifluoromethyl)phenoxy]methyl}pyrrolidin-1-yl)sulfonyl]-3,4-dihydropyrimido[1,2-a]indol-10(2H)-one]
25 | 45 | COC[C@@H]1CCCN1S(=O)(=O)c1ccc2c(c1)C(=O)C1=NCC3(CCCCCC3)CN12 [85/86, 8′-{[(2S)-2-(methoxymethyl)pyrrolidin-1-yl]sulfonyl}spiro[cycloheptane-1,3′-pyrimido[1,2-a]indol]-10′(2′H)-one]
26 | 714 | Cc1ccc(S(=O)(=O)Nc2ccc3c(c2)C(=O)C2=NCC(C)(C)CN23)cc1 [Example 51, N-(3,3-Dimethyl-10-oxo-2,3,4,10-tetrahydropyrimido[1,2-a]indol-8-yl)-4-methylbenzenesulfonamide]
27 | 3140 | CC1(C)CN=C2C(=O)c3cc(NS(=O)(=O)c4cc(C(F)(F)F)cc(C(F)(F)F)c4)ccc3N2C1 [Example 62, N-(3,3-Dimethyl-10-oxo-2,3,4,10-tetrahydropyrimido[1,2-a]indol-8-yl)-3,5-bis(trifluoromethyl)benzenesulfonamide]
28 | 233 | CC1(C)CN=C2C(=O)c3cc(NS(=O)(=O)c4ccc(Cl)c(Cl)c4)ccc3N2C1 [Example 53, 3,4-Dichloro-N-(3,3-dimethyl-10-oxo-2,3,4,10-tetrahydropyrimido[1,2-a]indol-8-yl)benzenesulfonamide]
29 | 30 | CN1CCN(C[C@@H]2CCCN2S(=O)(=O)c2ccc3c(c2)C(=O)C2=NCC4(CCCC4)CN23)CC1 [Example 84, 8′-({(2S)-2-[(4-Methylpiperazin-1-yl)methyl]pyrrolidin-1-yl}sulfonyl)spiro[cyclopentane-1,3′-pyrimido[1,2-a]indol]-10′(2′H)-one]
